The supplement of paper PMC10307832

Tests used:
Experiment in all cases: relative viability (nuclei count vs DMSO), 5 days (fraction); higher = more cells survive
CAP-232 + Dasatinib = compound: C[C@H]([C@@H](C(=O)N)NC(=O)[C@@H]1CSSC[C@@H](C(=O)N[C@H](C(=O)N[C@@H](C(=O)N[C@H](C(=O)N1)CCCCN)CC2=CNC3=CC=CC=C32)CC4=CC=C(C=C4)O)NC(=O)[C@@H](CC5=CC=CC=C5)N)O [CAP-232] + Cc1nc(Nc2ncc(C(=O)Nc3c(C)cccc3Cl)s2)cc(N2CCN(CCO)CC2)n1 [Dasatinib] (partner 0.075 µM)
Summary of the method: (§1)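 A single step with final 0.05% Triton X-100, 1% formaldehyde and 1 ug/ml Hoechst fixed the cells and stained nuclei 5 days after treatment. Lung cancer cell lines in 1536-well plates had been treated by pin tool the day after seeding with one drug alone or a fixed anchor-drug dose plus five library-drug doses (not always all listed) in √10 steps, and nuclei were counted on 4× images. Relative viability is the ratio of nuclei in treated wells to nuclei in vehicle wells, taken as the median of duplicate plates.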

CAP-232 + Lapatinib = compound: C[C@H]([C@@H](C(=O)N)NC(=O)[C@@H]1CSSC[C@@H](C(=O)N[C@H](C(=O)N[C@@H](C(=O)N[C@H](C(=O)N1)CCCCN)CC2=CNC3=CC=CC=C32)CC4=CC=C(C=C4)O)NC(=O)[C@@H](CC5=CC=CC=C5)N)O [CAP-232] + CS(=O)(=O)CCNCc1ccc(-c2ccc3ncnc(Nc4ccc(OCc5cccc(F)c5)c(Cl)c4)c3c2)o1 [Lapatinib] (partner 2 µM)
Summary of the method: as §1

CAP-232 + Trametinib = compound: C[C@H]([C@@H](C(=O)N)NC(=O)[C@@H]1CSSC[C@@H](C(=O)N[C@H](C(=O)N[C@@H](C(=O)N[C@H](C(=O)N1)CCCCN)CC2=CNC3=CC=CC=C32)CC4=CC=C(C=C4)O)NC(=O)[C@@H](CC5=CC=CC=C5)N)O [CAP-232] + CC(=O)Nc1cccc(-n2c(=O)n(C3CC3)c(=O)c3c(Nc4ccc(I)cc4F)n(C)c(=O)c(C)c32)c1 [Trametinib] (partner 0.02 µM)
Summary of the method: as §1

CAP-232 + Foretinib = compound: C[C@H]([C@@H](C(=O)N)NC(=O)[C@@H]1CSSC[C@@H](C(=O)N[C@H](C(=O)N[C@@H](C(=O)N[C@H](C(=O)N1)CCCCN)CC2=CNC3=CC=CC=C32)CC4=CC=C(C=C4)O)NC(=O)[C@@H](CC5=CC=CC=C5)N)O [CAP-232] + COc1cc2c(Oc3ccc(NC(=O)C4(C(=O)Nc5ccc(F)cc5)CC4)cc3F)ccnc2cc1OCCCN1CCOCC1 [Foretinib] (partner 0.25 µM)
Summary of the method: as §1

CAP-232 + Navitoclax = compound: C[C@H]([C@@H](C(=O)N)NC(=O)[C@@H]1CSSC[C@@H](C(=O)N[C@H](C(=O)N[C@@H](C(=O)N[C@H](C(=O)N1)CCCCN)CC2=CNC3=CC=CC=C32)CC4=CC=C(C=C4)O)NC(=O)[C@@H](CC5=CC=CC=C5)N)O [CAP-232] + CC1(C)CCC(c2ccc(Cl)cc2)=C(CN2CCN(c3ccc(C(=O)NS(=O)(=O)c4ccc(N[C@H](CCN5CCOCC5)CSc5ccccc5)c(S(=O)(=O)C(F)(F)F)c4)cc3)CC2)C1 [Navitoclax] (partner 0.5 µM)
Summary of the method: as §1

| Cell Line | relative viability (CAP-232 + Dasatinib; first compound 0.4 µM) | relative viability (CAP-232 + Dasatinib; first compound 1.265 µM) | relative viability (CAP-232 + Dasatinib; first compound 4 µM) | relative viability (CAP-232 + Dasatinib; first compound 12.65 µM) | relative viability (CAP-232 + Lapatinib; first compound 0.4 µM) | relative viability (CAP-232 + Lapatinib; first compound 1.265 µM) | relative viability (CAP-232 + Lapatinib; first compound 4 µM) | relative viability (CAP-232 + Lapatinib; first compound 12.65 µM) | relative viability (CAP-232 + Trametinib; first compound 0.4 µM) | relative viability (CAP-232 + Trametinib; first compound 1.265 µM) | relative viability (CAP-232 + Trametinib; first compound 4 µM) | relative viability (CAP-232 + Trametinib; first compound 12.65 µM) | relative viability (CAP-232 + Foretinib; first compound 0.4 µM) | relative viability (CAP-232 + Foretinib; first compound 1.265 µM) | relative viability (CAP-232 + Foretinib; first compound 4 µM) | relative viability (CAP-232 + Foretinib; first compound 12.65 µM) | relative viability (CAP-232 + Navitoclax; first compound 0.4 µM) | relative viability (CAP-232 + Navitoclax; first compound 1.265 µM) | relative viability (CAP-232 + Navitoclax; first compound 4 µM) | relative viability (CAP-232 + Navitoclax; first compound 12.65 µM) |
| --- | --- | --- | --- | --- | --- | --- | --- | --- | --- | --- | --- | --- | --- | --- | --- | --- | --- | --- | --- | --- |
| NCI-H3122 | 0.781 | 0.804 | 0.847 | 0.833 | 1 | 1.09 | 1 | 1.05 | 0.222 | 0.194 | 0.293 | 0.24 | 0.91 | 0.97 | 0.795 | 1.03 | 1.01 | 0.988 | 1.02 | 1.03 |
| PC-3 [JPC-3] | 1.08 | 1.06 | 1.08 | 0.908 | 0.503 | 0.444 | 0.454 | 0.461 | 0.703 | 0.7 | 0.69 | 0.7 | 1.1 | 1.02 | 1.05 | 0.98 | 0.827 | 0.801 | 0.725 | 0.698 |
| PC-14 | 0.211 | 0.256 | 0.253 | 0.129 | 0.34 | 0.31 | 0.409 | 0.262 | 0.843 | 0.891 | 0.739 | 0.37 | 1.06 | 0.939 | 1.06 | 0.86 | 0.93 | 1.02 | 1.16 | 0.848 |
| RERF-LC-KJ | 0.695 | 0.871 | 0.735 | 0.27 | 0.96 | 0.859 | 1.03 | 0.861 | 0.927 | 0.778 | 0.784 | 0.566 | 0.87 | 0.993 | 0.951 | 0.884 | 1.05 | 1.08 | 1.02 | 0.703 |
| SK-LU-1 | 0.174 | 0.176 | 0.158 | 0.17 | 0.869 | 0.809 | 0.8 | 0.979 | 0.45 | 0.477 | 0.717 | 0.492 | 0.759 | 0.937 | 0.913 | 0.652 | 0.911 | 0.998 | 1.12 | 0.863 |
| SK-MES-1 | 0.339 | 0.317 | 0.341 | 0.203 | 0.534 | 0.469 | 0.419 | 0.473 | 0.543 | 0.549 | 0.541 | 0.524 | 0.935 | 1.04 | 0.95 | 0.771 | 1.28 | 1.17 | 1.45 | 1.1 |
| SW 1573 | 0.416 | 0.493 | 0.603 | 0.0706 | 1.06 | 1.12 | 1.21 | 1.13 | 0.503 | 0.54 | 0.643 | 0.191 | 0.873 | 0.836 | 0.903 | 1.03 | 0.912 | 1.1 | 0.988 | 0.635 |
| UMC-11 | 0.621 | 0.494 | 0.587 | 0.316 | 1.02 | 0.907 | 1.14 | 1.08 | 0.65 | 0.546 | 0.719 | 0.456 | 1.09 | 1.1 | 1.12 | 0.977 | 0.317 | 0.307 | 0.295 | 0.297 |
